Source: US8138188B2, “Melanocortin type 4 receptor agonist piperidinoylpyrrolidines” (Pfizer Inc., priority 2006, dated 2012)

Columns and labels:
CYP3A4 = molecular target: T1, CYP3A4 (Homo sapiens, UniProt P08684); test: High density drug-drug interactions (DDI) 3 μM cocktail screen in human liver microsomes; assay type: in vitro ADME; details: 3 uM test compound, pooled human liver microsomes, probe midazolam 2 μM; read-out: % Inhibition of 3A4 metabolism at 3 uM
T1 construct: utilizes human liver microsomes together with isoform-specific clinical drug probes; from tissue; host or cells: human liver microsomes
T1 sequence (P08684 whole entry, canonical isoform): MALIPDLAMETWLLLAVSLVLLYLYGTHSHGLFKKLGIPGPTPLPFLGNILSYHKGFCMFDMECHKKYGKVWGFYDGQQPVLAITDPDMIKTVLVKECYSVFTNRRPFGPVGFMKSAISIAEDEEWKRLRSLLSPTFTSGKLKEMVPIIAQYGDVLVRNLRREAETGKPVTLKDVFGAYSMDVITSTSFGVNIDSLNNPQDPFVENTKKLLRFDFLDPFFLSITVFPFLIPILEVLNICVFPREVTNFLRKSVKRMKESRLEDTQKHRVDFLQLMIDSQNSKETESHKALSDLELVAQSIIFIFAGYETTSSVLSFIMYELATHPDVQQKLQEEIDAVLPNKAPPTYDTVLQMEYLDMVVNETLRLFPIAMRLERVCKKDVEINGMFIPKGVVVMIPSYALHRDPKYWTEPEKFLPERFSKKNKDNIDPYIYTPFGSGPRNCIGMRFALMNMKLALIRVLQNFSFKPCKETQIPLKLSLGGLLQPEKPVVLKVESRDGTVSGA
Procedure: High Density Drug-Drug Interactions (DDI) 3 μM Cocktail Screen
A drug interaction is a situation in which a substance affects the activity of another drug, i.e. the effects are increased or decreased, or together they produce a new effect that neither produces on its own. Drug interactions may be the result of various processes but a relatively common one is where one drug affects the pharmacokinetics of another by inhibiting the cytochrome P450 that metabolises it. Because of the importance of these phenomena, assessment of the DDI potential for new chemical entities (NCEs) is considered important early on in the drug discovery process.
The DDI cocktail screen in human liver microsomes (HLM) is run in a fully automated fashion and the aim of the screen is to provide a single-point assessment of the DDI potential of new chemical entity (NCE; tested at 3 μM) against the 4 primary cytochrome P450 enzymes, 1A2, 2D6, 2C9 and 3A4.
The substrate cocktail approach for P450 DDI utilizes human liver microsomes together with isoform-specific clinical drug probes and permits the simultaneous measurement of the inhibition of P450 1A2, 2C9, 2D6 & 3A4 activities in a single incubation. This is run in high throughput with simultaneous detection of metabolites by LC-MS/MS. This method has been thoroughly tested and evaluated using standard compounds.
Appearance of the metabolite of each substrate is measured over time in the presence and absence of the NCE (test compound/inhibitor) at a concentration of 3 μM. The compounds are assessed for their inhibitory potential as a percentage value and interpreted using the following scheme.

[1] = In vitro metabolism rate determination, human liver microsome (HLM) assay; assay type: in vitro ADME; details: human liver microsomes, substrate 1 μM; read-out: HLM (intrinsic clearance)
Text: In vitro Metabolism Rate Determination (Human Liver Microsome (HLM); Rat Liver Microsome (RLM) Assay)
Many drugs are metabolised by the cytochrome P450 mono-oxygenase system. This enzyme is found in high concentrations in the liver and is bound to the endoplasmic reticulum of the hepatocyte. The enzyme system can be obtained in semi-purified state by the preparation of the hepatic microsomal fractions. Determining a compound's in vitro half-life in such a system provides a useful indicator of metabolic stability.
Methodology For In Vitro Rate Determination Using Hepatic & Supermix Microsomes
The method outlined below is for a total incubation volume of 1.5 ml.
1. The following mixture is prepared in a test tube:
2. Defrost microsomes at room temperature and add sufficient microsomes to give a final concentration of 0.5 nmol cytochrome P450/ml of incubation e.g. for a 1.5 ml incubation, the volume of microsomes to be added is:
[formula] 3. Add sufficient MilliQ water to give a total incubation volume of 1.425 ml. 4. Remove 237.5 μl of incubation mix and place in test tube for PNA positive control. Add 2.5 μl of PNA solution, whirlimix, and put tube into a rack in the thermostatically controlled shaking water bath 5. Remove 100 μl for no substrate control and dispense in test tube. Place test tube in a rack in the thermostatically controlled shaking water bath. 6. Add substrate to the incubation. The substrate should be at an initial concentration of 1 μM. The volume of substrate required in the remaining 1.162.5 ml incubation is calculated as follows:
[formula] • N.B. The volume of organic solvent added should not exceed 0.1% of the total incubation volume. 7. Remove 100 μl of incubation mix into test tube for no cofactor control. Whirlimix and put into a rack in the thermostatically controlled shaking water bath. 8. Pre-incubate the tube containing the incubation mix, also positive control and no cofactor tubes in the thermostatically controlled shaking water bath set at 37° C. for approx 5 min. 9. Add NADP to initiate reaction (75 μl to each 1.162.5 ml incubation mix, 12.5 μl to positive control tube and 5 μl to no substrate tube) and take first time point immediately. The PNA positive control, no cofactor control and no substrate tubes are incubated for the total incubation time. 10. Remove 100 μl aliquots up to 9 different sampling points from 0 to 60 min (usually 0, 3, 5, 10, 15, 20, 30, 45 & 60 min) and terminate reaction. Longer incubation times can be used, but, after 120 min the microsomes deteriorate. The reaction may be terminated by addition of organic solvent, acid or base. At the end of the incubation process the no cofactor and no substrate controls in a similar manner i.e. terminate with the same reagent. 11. PNA Positive Control Procedure: • After the final sample has been taken, remove the positive control and add 1 ml 20% TCA to this tube. Also prepare a tube containing 250 μl of a PNP standard at 50 μM, and add 1 ml 20% TCA. Whirlimix both tubes and leave for approx 5 min to allow the protein to precipitate. • Centrifuge both tubes for approx 5 min in an instrument set at 3500 rpm. Remove 1 ml of supernatant and place into clean test tubes, discard the remainder. • Add 1 ml 10M NaOH to the supernatant, whirlimix, and leave to stand for approx min. Blank spectrophotometer with distilled water at 400 nm then measure absorbance of the PNP standard against distilled water. The microsomal 4-nitroanisole O-demethylase activity is calculated as follows: Calculation of Results
[formula] • The activity value from the incubation MUST be equal to or greater than 85% of the mean value of the batch used for the incubation to be valid. If this criteria is not met, then the incubation must be repeated. 11. Analyse samples (including no cofactor and no substrate control) by a specific assay for the substrate to determine the disappearance kinetics. Analysis Of Data […]

MC4 receptor = MC4 receptor (Homo sapiens, UniProt P32245); test: MC4 functional agonist potency (EC50), assay protocol E of US2005/0176772 / WO 2005/077935; assay type: cell-based; details: functional potency at the MC4 receptor
Chain of MC4 receptor (P32245 whole entry): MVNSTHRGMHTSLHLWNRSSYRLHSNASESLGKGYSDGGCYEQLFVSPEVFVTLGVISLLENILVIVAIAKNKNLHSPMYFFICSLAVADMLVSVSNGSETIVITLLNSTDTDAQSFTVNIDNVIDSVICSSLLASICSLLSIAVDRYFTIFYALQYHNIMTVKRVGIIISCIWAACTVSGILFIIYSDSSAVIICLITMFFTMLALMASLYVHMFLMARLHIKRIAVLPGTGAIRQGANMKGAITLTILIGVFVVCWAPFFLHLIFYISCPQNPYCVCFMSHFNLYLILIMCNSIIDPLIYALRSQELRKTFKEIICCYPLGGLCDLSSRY
Procedure: The compounds of formula (I) of the present invention have utility as MCR4 agonists in the treatment of various disease states.
MC5 and MC4 EC50 activity was determined as described by assay protocols D and E, respectively, in US2005/0176772 (pages 28-30).

Structure (SMILES)	inhibition at 3 μM (CYP3A4) [%]	microsomal CLint at 1 μM [1] [µL/min/mg]	EC50 (MC4 receptor) [nM]
CC1CN(C(=O)C2CN(c3cncc(F)c3)CC2c2ccc(Cl)cn2)CC(C)C1(O)C1CC1 (stereo not drawn) [Example 24]	87	355	59.3
C[C@@H]1CN(C(=O)[C@@H]2CN(c3ccc(=O)[nH]n3)C[C@H]2c2ccc(Cl)cn2)C[C@H](C)[C@@]1(O)c1ccccn1 [Example 28]	77	33	24.4
C[C@@H]1CN(C(=O)[C@@H]2CN(c3ccc(Cl)nn3)C[C@H]2c2ccc(F)cn2)C[C@H](C)[C@@]1(O)c1ccccc1 [Example 35]	46	100	62.2
CC1CN(C(=O)C2CN(c3ccc(=O)n(C)n3)CC2c2ccc(F)cn2)CC(C)C1(O)c1ccc(F)cc1 (stereo not drawn) [Example 40]	64	< 7	69.8
COc1ccc([C@@H]2CN(c3ccc(=O)[nH]n3)C[C@H]2C(=O)N2C[C@@H](C)[C@](O)(c3ccc(Cl)cn3)[C@@H](C)C2)nc1 [Example 41]	52	21	655
COc1ccc([C@@H]2CN(c3ccc(C#N)nn3)C[C@H]2C(=O)N2C[C@@H](C)[C@](O)(c3ccc(F)cc3)[C@@H](C)C2)nc1 [Example 43]	44	37	49.3
CC1CN(C(=O)C2CN(c3ccc(C#N)cn3)CC2c2ccc(C#N)cn2)CC(C)C1(O)c1ccc(F)cc1 (stereo not drawn) [Example 45]	69	< 7	44.4

Molecules with a lower EC50 (MC4 receptor), results first:

inhibition at 3 μM (CYP3A4) [%]	microsomal CLint at 1 μM [1] [µL/min/mg]	EC50 (MC4 receptor) [nM]	Structure (SMILES)
60	188	22.9	C[C@@H]1CN(C(=O)[C@@H]2CN(c3ccc(Cl)nn3)C[C@H]2c2ccc(Cl)cn2)C[C@H](C)[C@@]1(O)c1ccccn1 [Example 31]
61	70	22.5	COc1ccc(N2CC(C(=O)N3CC(C)C(O)(C4CC4)C(C)C3)C(c3ccc(Cl)cn3)C2)nn1 (stereo not drawn) [Example 26]
74	< 7	15	C[C@@H]1CN(C(=O)[C@@H]2CN(c3ccc(C#N)nn3)C[C@H]2c2ccc(C#N)cn2)C[C@H](C)[C@@]1(O)c1ccc(F)cc1 [Example 46]
19	186	13.4	CC1CN(C(=O)C2CN(c3ccc(C#N)nn3)CC2c2ccc(F)cn2)CC(C)C1(O)c1ccccc1 (stereo not drawn) [Example 33]
16	308	12.4	CC1CN(C(=O)C2CN(c3cncc(F)c3)CC2c2ccc(Cl)cn2)CC(C)C1(O)c1ccc(F)cc1 (stereo not drawn) [Example 25]
31	8	8.78	C[C@@H]1CN(C(=O)[C@@H]2CN(c3ccc(C#N)nn3)C[C@H]2c2ccc(F)cn2)C[C@H](C)[C@@]1(O)c1ccc(Cl)cc1 [Example 32]
38	141	5.77	CC1CN(C(=O)C2CN(c3ccc(C#N)nn3)CC2c2ccc(Cl)cn2)CC(C)C1(O)c1ccccn1 (stereo not drawn) [Example 30]
64	51	4.54	CC1CN(C(=O)C2CN(c3ccc(=O)[nH]n3)CC2c2ccc(Cl)cn2)CC(C)C1(O)c1ccccc1 (stereo not drawn) [Example 27]
